Laboratory results: ChEMBL document CHEMBL2094269, “WEHI/Eskitis Trypanosoma b. brucei screening data”
pIC50: −log10 of the molar value. “And” between values parts separate entries of the source, which are not always exact repeats. Equal entries are not always repeated.

Tests used:
[1] = DNDI: Cytotoxicity against human MRC-5 lung fibroblast cells.; conditions: IC50
[2] = test system: Trypanosoma brucei brucei; experiment: microbe, parasite or virus in culture; assay type: functional, organism-based, STIB 795
Description: DNDI: Inhibition of Human African Trypanosomiasis (HAT), STIB 795, in vitro

| Compound | pIC50 [1] | pIC50 ([2]; Trypanosoma brucei, STIB 795) | pIC50 [2] |
| --- | --- | --- | --- |
| S=c1c(Cl)c(Cl)cnn1-c1ccccc1 | < 4.68 | 5.21 | – |
| CC1(C)OC(C)(C)/C(=C/c2ccc3cccnc3c2)C1=O | < 4.68 | 5.28 | – |
| COCc1cc(CN2CCN(c3ccccc3OC)CC2)c(O)c2ncccc12 | 5.80 | 5.64 | – |
| Cc1ccc(C23CC4CC(CC(CN)(C4)C2)C3)cc1C | < 4.68 | 6.04 | – |
| COc1cccc(NC(=O)CSc2cccc3cccnc23)c1 | < 4.38 | 5.24 | – |
| Cc1c(Br)c(C(=O)N/N=C/c2c(O)ccc3ccccc23)nn1C | < 4.68 | ≥ 4.98 | – |
| CN(C)CCn1c2ccccc2c2cnc(N)c(C#N)c21 | < 5.38 | 5.44 | – |
| CN1CCC(=NNC(=O)c2cc(-c3ccc(Cl)cc3)nc3ccccc23)CC1 | < 4.38 | 5.26 | – |
| Cc1ccc(O)c(NN=C2C(=O)CC(C)(C)CC2=O)c1 | < 5.38 | 5.29 | – |
| CC(C)(C)c1ccc(/C(=N\NC(=N)N)c2ccc(Cl)cc2)cc1 | < 4.68 | 5.96 | – |
| CCN(CC)CCn1nc2c3c(cccc3c1=O)-c1ccccc1-2 | 5.84 | 5.80 | – |
| O=C(N/N=C/c1cc(I)ccc1O)c1ccccc1O | < 5.38 | 4.35 | – |
| CC(C)CC(=O)NC(=C(Cl)Cl)S(=O)(=O)c1ccccc1 | < 5.38 | 5.27 | – |
| Cc1cc(NCCN2CCCCC2)c2ccc3ccccc3c2n1 | < 4.68 | 5.61 | – |
| CN(C)CCCNc1nn2c(=O)c3ccccc3nc2c2ccccc12 | < 5.38 | 5.27 | – |
| N#CC1=C(N)Oc2[nH]nc(C(F)(F)F)c2C1c1cccs1 (configuration not stated) | < 4.38 | 5.26 | 5.27 |
| Oc1c(C(c2ccc(C(F)(F)F)cc2)N2CCOCC2)ccc2cccnc12 (configuration not stated) | < 4.68 | 5.27 | – |
| C/N=c1\nnc(Nc2ccccc2O)c(N)o1 | 5.33 | 6.54 | – |
| Cc1cccc(NC(=O)Cn2cc(CO)c3ccccc32)c1 | < 5.38 | 5.27 | – |
| Cc1nnc(-c2ccccc2)c(=O)n1/N=C/c1c(O)ccc2ccccc12 | < 5.38 | 5.20 | 5.22 |
| CC(C)N1C/C(=C/c2ccccn2)C(=O)/C(=C/c2ccccn2)C1 | 5.24 | 6.63 | – |
| C=CCNCCCCOc1ccc(Br)cc1Cl | < 4.38 | 5.31 | – |
| CCc1c(C)nc(-n2nc(C)cc2NC(=O)c2ccccc2Cl)[nH]c1=O | < 4.68 | 5.54 | – |
| Cc1cccc(C)c1C(O)(CC(O)CNC(C)C)c1c(C)cccc1C (configuration not stated) | < 4.38 | 5.31 | – |

| Compound | pIC50 [1] | pIC50 ([2]; Trypanosoma brucei, STIB 795) | pIC50 [2] |
| --- | --- | --- | --- |
| C=CCn1c(=N)n(CC(O)COc2ccccc2C)c2ccccc21 (configuration not stated) | < 4.68 | 6.14 | – |
| CCC1=C(C)c2cc3nc(C(=O)OCc4ccccc4)c(C)c-3c(C)n2C1C (configuration not stated) | < 4.38 | 5.25 | – |
| CCN1/C(=C/C=C/C2=[N+](C)c3ccc(C)cc3C2(C)C)C=Cc2ccccc21 | < 5.38 | 6.62 | – |
| N#Cc1ccc(-c2ccncc2)nc1SCCN1CCCCC1 | < 4.38 | 5.13 | – |
| c1ccc(Cn2s/c(=N\c3ccccc3)nc2-c2ccccc2)cc1 | < 4.68 | 5.86 | – |
| Cc1cc(C)nc(Nc2nc(N)c3ccccc3n2)n1 | 5.22 | 5.42 | – |
| CCc1nnc(NC(=O)c2cc3ccc4ccc(C)nc4c3[nH]2)s1 | < 4.38 | 6.31 | – |
| CCOc1cc(CNCCc2cccc(Cl)c2)ccc1OC | < 4.68 | 5.32 | – |
| CCOc1ccc2nc3cc(NCc4ccccc4OC)ccc3c(N)c2c1 | < 4.68 | 5.34 | – |
| CC(=O)Cc1ccc2cccc(O)c2n1 | < 5.38 | 5.34 | – |
| O=C1NC(=S)NC(=O)C1=Cc1c2ccccc2cc2ccccc12 | < 4.38 | 5.28 | – |
| Cc1ccccc1Cn1c(=N)n(CC(O)c2ccco2)c2ccccc21 (configuration not stated) | < 4.68 | 5.28 | – |
| CCC(C)NC(=O)c1nc(-c2ccccc2)cnc1N (configuration not stated) | < 4.38 | 6.37 | – |
| Cc1c(-c2cccc(NC(=O)c3cccs3)c2)nc2ncccn12 | < 4.38 | 5.29 | – |
| COc1ccc(C(=O)O/N=C(\N)c2ccccc2Cl)cc1OC | < 4.68 | 6.16 | – |
| CCc1ccc(NS(=O)(=O)c2cc(-c3cc(C)n[nH]3)ccc2C)cc1 | < 5.38 | 5.91 | – |
| COc1cc(-n2nnn(C3CC(=O)C4OCC3O4)c2=S)c(OC)cc1Cl (configuration not stated) | < 4.68 | – | < 4.98 and 5.32 |
| CC(Nc1nc(N2CCNCC2)nc2ccccc12)c1ccccc1 (configuration not stated) | < 5.38 | 5.83 | – |
| CC1CCN(Cc2cc(Br)c(O)c3ncccc23)CC1 | 5.27 | 5.79 | – |
| C[N+](CC#CC1CC1)(C1CCCCC1)C1CCCCC1 | < 4.38 | 5.05 | – |
| COc1ccc(C(=O)O/N=C(\N)c2ccccn2)c(OC)c1 | < 4.68 | 5.35 | – |
| COc1ccc(CCON2C(N)=NC(N)=NC2(C)C)cc1 | < 5.38 | ≥ 5.51 | – |
| Cc1cccc(-n2nnn(C3CC(=O)C4OCC3O4)c2=S)c1C (configuration not stated) | < 4.38 | 5.28 | – |
| CC(C)c1ccc(-c2csc(NC(=O)C3C4CCC(O4)C3C(=O)O)n2)cc1 (configuration not stated) | < 4.38 | 5.81 | 6.06 |

| Compound | pIC50 [1] | pIC50 ([2]; Trypanosoma brucei, STIB 795) | pIC50 [2] |
| --- | --- | --- | --- |
| N=c1c2c(n(Cc3ccc(Cl)cc3Cl)c3c1CCC3)CCCC2 | < 4.38 | 6.07 | – |
| COc1cc(Cl)cc2c1Sc1ccccc1CC2N1CCNCC1 (configuration not stated) | < 4.68 | 5.38 | – |
| CCN(CC)c1ccc(/C=C/C2=[N+](C)c3ccc(C(=O)OC)cc3C2(C)C)cc1 | 5.41 | 7.25 | – |
| CCOc1cc(-n2ncc(Cl)c(Cl)c2=O)nc(SC)n1 | < 5.38 | 5.82 | – |
| OC12C[C@@H](C3CO[C@@H]1O3)n1nnnc1N2 | < 4.68 | 5.32 | – |
| COc1ccccc1NC(=O)c1cc(Cl)nnc1Cl | < 4.68 | 5.26 | – |
| O=C(Nc1cccc(Cl)c1)O/N=C1\CC2CCC1C2 (configuration not stated) | < 4.68 | 6.07 | – |
| Cc1cccc(N2CCN(CCN)CC2)c1C | < 4.38 | 5.28 | – |
| Cc1cccc(C)c1C(OCC1CN(C(C)C)C(C)(C)O1)c1c(C)cccc1C (configuration not stated) | < 4.68 | 5.31 | – |
| NCCCCNCCOC(c1ccc(F)cc1)c1ccc(F)cc1 | < 4.68 | 5.59 | – |
| N=c1n(CCO)c2ccccc2n1CCOc1ccc(Cl)cc1Cl | 5.05 | 5.58 | – |
| Cc1ccsc1/C=C(\C(=O)NCc1cccnc1)S(=O)(=O)c1ccccc1 | < 4.68 | 5.28 | – |
| CC(C)(C)c1cc(C(c2ccccc2O)N2CCCCC2)cc(C(C)(C)C)c1O (configuration not stated) | < 4.38 | 5.47 | 5.35 |
| O=C(O)c1n[nH]c2c1CCCCCC2 | < 5.38 | ≥ 5.58 | – |
| CCOC(=O)c1c(CN2CCOCC2)oc2c1C(=O)C(=O)c1ccccc1-2 | < 4.68 | 6.07 | – |
| C=CCNc1nc(N)c(/C(N)=N\C#N)s1 | < 4.38 | 5.49 | – |
| CCN1/C(=C\C=C/C2C=Cc3ccccc3N2CC)C=Cc2ccccc21 (configuration not stated) | 5.29 | 6.39 | – |
| O=C(c1ccccc1)c1ccc(O)c(O)c1 | < 4.38 | 5.92 | – |
| CCOC(=O)N/N=C\c1ccc(-c2cccc(C(F)(F)F)c2)o1 | < 4.38 | 5.50 | – |
| N=C(N)N/N=C(/C=C(\c1ccc(Cl)cc1)n1ccnc1)c1ccc(Cl)cc1 | < 4.98 | 5.52 | – |
| COc1ccc(C2=NNc3cccc4c(OC)ccc2c34)cc1OC | < 4.38 | 5.25 | 5.27 |
| CC(=O)CC1(O)C(=O)Nc2ccc(I)cc21 (configuration not stated) | < 4.38 | 5.50 | – |
| COc1ccc(-c2nc(Nc3ccc(F)cc3F)c3ccccc3n2)cc1OC | < 4.38 | 5.15 | – |
| CC1CS/C(=N/c2ccc(Br)cc2)N1 (configuration not stated) | < 4.38 | 5.18 | – |

| Compound | pIC50 [1] | pIC50 ([2]; Trypanosoma brucei, STIB 795) | pIC50 [2] |
| --- | --- | --- | --- |
| CN1CCN(Cc2cn(-c3ccc(Cl)cc3)c3ccc(F)cc23)CC1 | < 4.38 | 5.28 | – |
| Clc1cc2c(c3ncccc13)OCN(CC1CCCO1)C2 (configuration not stated) | 5.17 | 5.17 | – |
| C[N+](C)(C)c1nc(N2CCOCC2)nc(N(c2ccccc2)c2ccccc2)n1 | < 4.38 | 5.60 | – |
| CNCCCC1Sc2ccccc2Oc2ccccc21 (configuration not stated) | < 4.38 | 5.33 | – |
| N=C(NOC(=O)C12CC3CC(CC(C3)C1)C2)c1ccccc1 | < 4.68 | 6.49 | – |
| O=C(NCCc1nc(-c2ccccc2)cs1)C1(c2ccccc2)CC1 | < 4.38 | 5.24 | 5.31 |
| Cc1c(-c2cccc3c2OC(C)(C)C3)ccc2nc(N)nc(N)c12 | < 5.38 | ≥ 5.71 | – |
| c1ccc(Sc2cccc3ccccc23)c(CNC2=NCCN2)c1 | < 4.68 | 6.37 | – |
| Cc1ccc(-c2cn3c([n+]2-c2ccc(C)cc2)CCCCC3)cc1 | < 4.68 | 5.19 | – |
| CC(C)(C)OC(=O)N/N=C\c1ccc(-c2cccc(Cl)c2)o1 | < 4.38 | 5.13 | – |
| Cc1cccc(C(=O)O/N=C(\N)c2ccncc2)c1 | < 4.38 | 5.27 | – |
| CCOc1ccc(N(C(C)=O)C2=C(N(C)C)C(=O)c3ccccc3C2=O)cc1 | < 5.38 | 5.29 | – |
| c1ccc2c(c1)CC1CNCc3cccc(c31)S2 (configuration not stated) | < 4.38 | 5.25 | – |
| O=C(Nc1c2ccccc2nc2ccccc12)c1ccncc1 | 5.24 | 5.92 | – |
| CCn1c(SCC(=O)N/N=C(\C)c2ccc(O)c(OC)c2)nc2ccccc21 | < 4.38 | 5.30 | – |
| CC1CCN(C(c2cc(C(C)(C)C)c(O)c(C(C)(C)C)c2)c2ccccn2)CC1 (configuration not stated) | < 4.38 | 5.24 | – |
| O=C1/C(=C\c2cccnc2)CCc2ccccc21 | < 4.68 | 5.30 | – |
| Cc1ccccc1OCCn1c(=N)n(CC(C)C)c2ccccc21 | < 4.68 | 5.25 | – |
| CN(C)c1ccc(C2=Nc3cccc4cccc2c34)cc1 | < 4.38 | 6.36 | – |
| Cn1c(-c2cccnc2)nn(C2CC(=O)C3OCC2O3)c1=S (configuration not stated) | < 4.68 | 5.63 | – |
| N=C(N)N/N=C1/C(=O)Nc2ccc(Br)cc21 | < 4.38 | – | – |
| Oc1ccc(/N=N/c2ccccc2C(F)(F)F)c2cccnc12 | – | < 4.98 | – |
